{"source": "patent EP2818471A1", "about": "“Nitrogen bicyclic compounds as inhibitors for Scyl1 and Grk5” (Max-Planck-Gesellschaft zur Förderung der Wissenschaften …, priority 2013, dated 2014)", "system": "beta-TC6", "assay": "MTT cytotoxicity assay (cell viability and proliferation)", "type": "cell-based, mouse", "conditions": "beta-TC6, 72 h treatment, concentrations up to 10 µM", "protocol": "Using a MTT approach, we determined the effect on cell viability and proliferation of beta-TC6 and C2C12 cells to display potential cytotoxicity of the compounds according to the invention in vitro after a 72 h treatment.\nFor MTT (3-(4,5-dimethylthiazol-2-yl)-2,5-diphenyl tetrazolium bromide) transformation, 1/5 of total volume of a 5 mg/mL MTT stock solution was added to the cells as well as control wells and incubated at 37 °C, 5 % CO2 (v/v) for 1 h. Then 1/2 of total volume of MTT-stop solution was added and plates were incubated overnight in the dark at 25 °C. The optical density (OD) was measured using a multiwell spectrophotometer at a wavelength of 570 nm.", "data": [{"smiles": "COc1cc(-c2ccc3ncc(-c4cccnc4)n3n2)cc(OC)c1OC", "note": "[compound 10, 3-(3-pyridyl)-6-(3,4,5-trimethoxyphenyl)imidazo[1,2-b]pyridazine]", "values": [{"measurement": "toxic effect", "result": "no toxic effect at all"}]}]}
